Test results reported in US4430502A, “Pyridinyl substituted benzimidazoles and quinoxalines” (The Upjohn Company, priority 1982, dated 1984).

Target: T1, TXA2 synthetase (Homo sapiens, UniProt P24557)
T1 construct: human platelet microsomes (HPM); from tissue; host or cells: human platelet microsomes
T1 sequence (P24557 1-533): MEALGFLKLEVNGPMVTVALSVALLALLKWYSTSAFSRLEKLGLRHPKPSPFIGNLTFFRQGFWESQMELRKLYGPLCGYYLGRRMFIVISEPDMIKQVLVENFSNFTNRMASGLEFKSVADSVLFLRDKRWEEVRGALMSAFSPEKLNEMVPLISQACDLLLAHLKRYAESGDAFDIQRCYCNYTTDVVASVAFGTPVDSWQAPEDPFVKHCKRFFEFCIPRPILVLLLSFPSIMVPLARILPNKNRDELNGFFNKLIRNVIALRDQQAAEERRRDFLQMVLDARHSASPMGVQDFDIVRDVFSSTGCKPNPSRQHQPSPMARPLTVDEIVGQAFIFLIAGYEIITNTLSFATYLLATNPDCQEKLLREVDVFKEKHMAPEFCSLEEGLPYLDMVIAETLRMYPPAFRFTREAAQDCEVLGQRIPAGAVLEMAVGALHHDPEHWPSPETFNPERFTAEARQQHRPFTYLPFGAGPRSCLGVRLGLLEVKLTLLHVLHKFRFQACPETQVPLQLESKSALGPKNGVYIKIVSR
Test: TXA2 inhibition test: TXA2 generated from PGH2 with human platelet microsomes, response of superfused rabbit aortic strips
Assay type: biochemical
Method: The compounds of the present invention were tested for TXA2 inhibition as follows:
Rabbit aortic strips were superfused in series with Krebs solution. Thromboxane A2 (TXA2) was generated by mixing prostaglandin H2 (PGH2) with human platelet microsomes (HPM).
Potential inhibitors were tested by comparing the response of the rabbit aorta to the amount of TXA2 produced by mixing PGH2 and HPM without the test compound in the reaction medium and then the amount of TXA2 produced when the test compound was added to the HPM 5 minutes before the HPM was mixed with PGH2. […] For a discussion of TXA2 synthetase inhibition testing see, e.g., R. Gorman, supra.

effectiveness in inhibiting TXA2 formation (compared with the other compounds tested in this test system): most effective
IC50 (test compound added to human platelet microsomes 5 minutes before mixing with PGH2, rabbit aorta response, read-out: approximate ED50 for inhibiting TXA2 formation (converted)): ~478 nM
SMILES: c1cncc(Cc2ccc3nc[nH]c3c2)c1 [Example 3, 5-(3-Pyridinylmethyl)benzimidazole]
